From PMC4904262 (ACS Medicinal Chemistry Letters, 2016)

Assays:
SGK = SGK (Homo sapiens, UniProt O00141); conditions: 1 µM, ATP at Km
TBK1 = TBK1 (Homo sapiens, UniProt Q9UHD2); conditions: 1 µM, ATP at Km
CDK1/CYCLINB = CDK1/CYCLINB (Homo sapiens, UniProt P06493); conditions: 1 µM, ATP at Km
MEK1 = MEK1 (Homo sapiens, UniProt Q02750); conditions: 1 µM, ATP at Km
MTOR/FKBP12 = MTOR/FKBP12 (Homo sapiens, UniProt P42345); conditions: 1 µM, ATP at Km
MST1 = MST1 (Homo sapiens, UniProt Q13043); conditions: 1 µM, ATP at Km
DAPK2 = DAPK2 (Homo sapiens, UniProt Q9UIK4); conditions: 1 µM, ATP at Km
FGFR3 = FGFR3 (Homo sapiens, UniProt P22607); conditions: 1 µM, ATP at Km
MARK1 = MARK1 (Homo sapiens, UniProt Q9P0L2); conditions: 1 µM, ATP at Km
BLK = BLK (Homo sapiens, UniProt P51451); conditions: 1 µM, ATP at Km
Chain of BLK (P51451 whole entry): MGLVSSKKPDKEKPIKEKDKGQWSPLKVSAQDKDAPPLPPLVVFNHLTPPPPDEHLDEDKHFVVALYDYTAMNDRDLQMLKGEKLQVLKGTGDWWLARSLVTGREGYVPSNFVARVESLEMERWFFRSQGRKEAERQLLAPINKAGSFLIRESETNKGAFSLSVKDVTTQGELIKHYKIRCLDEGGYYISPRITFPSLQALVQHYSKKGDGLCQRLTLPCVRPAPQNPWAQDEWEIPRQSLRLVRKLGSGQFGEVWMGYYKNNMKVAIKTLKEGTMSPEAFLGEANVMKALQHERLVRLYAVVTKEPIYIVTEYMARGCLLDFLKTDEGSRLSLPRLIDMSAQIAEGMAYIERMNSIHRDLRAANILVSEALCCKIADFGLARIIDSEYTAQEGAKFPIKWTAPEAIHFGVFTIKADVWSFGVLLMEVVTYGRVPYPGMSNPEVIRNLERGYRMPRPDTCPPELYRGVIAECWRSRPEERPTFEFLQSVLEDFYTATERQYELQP

JNK1ALPHA1 = JNK1ALPHA1 (Homo sapiens, UniProt P45983); conditions: 1 µM, ATP at Km
FLT1 = FLT1 (Homo sapiens, UniProt P17948); conditions: 1 µM, ATP at Km
PKBGAMMA = PKBGAMMA (Homo sapiens, UniProt Q9Y243); conditions: 1 µM, ATP at Km
HIPK1 = HIPK1 (Homo sapiens, UniProt Q86Z02); conditions: 1 µM, ATP at Km
Chain of HIPK1 (Q86Z02 whole entry): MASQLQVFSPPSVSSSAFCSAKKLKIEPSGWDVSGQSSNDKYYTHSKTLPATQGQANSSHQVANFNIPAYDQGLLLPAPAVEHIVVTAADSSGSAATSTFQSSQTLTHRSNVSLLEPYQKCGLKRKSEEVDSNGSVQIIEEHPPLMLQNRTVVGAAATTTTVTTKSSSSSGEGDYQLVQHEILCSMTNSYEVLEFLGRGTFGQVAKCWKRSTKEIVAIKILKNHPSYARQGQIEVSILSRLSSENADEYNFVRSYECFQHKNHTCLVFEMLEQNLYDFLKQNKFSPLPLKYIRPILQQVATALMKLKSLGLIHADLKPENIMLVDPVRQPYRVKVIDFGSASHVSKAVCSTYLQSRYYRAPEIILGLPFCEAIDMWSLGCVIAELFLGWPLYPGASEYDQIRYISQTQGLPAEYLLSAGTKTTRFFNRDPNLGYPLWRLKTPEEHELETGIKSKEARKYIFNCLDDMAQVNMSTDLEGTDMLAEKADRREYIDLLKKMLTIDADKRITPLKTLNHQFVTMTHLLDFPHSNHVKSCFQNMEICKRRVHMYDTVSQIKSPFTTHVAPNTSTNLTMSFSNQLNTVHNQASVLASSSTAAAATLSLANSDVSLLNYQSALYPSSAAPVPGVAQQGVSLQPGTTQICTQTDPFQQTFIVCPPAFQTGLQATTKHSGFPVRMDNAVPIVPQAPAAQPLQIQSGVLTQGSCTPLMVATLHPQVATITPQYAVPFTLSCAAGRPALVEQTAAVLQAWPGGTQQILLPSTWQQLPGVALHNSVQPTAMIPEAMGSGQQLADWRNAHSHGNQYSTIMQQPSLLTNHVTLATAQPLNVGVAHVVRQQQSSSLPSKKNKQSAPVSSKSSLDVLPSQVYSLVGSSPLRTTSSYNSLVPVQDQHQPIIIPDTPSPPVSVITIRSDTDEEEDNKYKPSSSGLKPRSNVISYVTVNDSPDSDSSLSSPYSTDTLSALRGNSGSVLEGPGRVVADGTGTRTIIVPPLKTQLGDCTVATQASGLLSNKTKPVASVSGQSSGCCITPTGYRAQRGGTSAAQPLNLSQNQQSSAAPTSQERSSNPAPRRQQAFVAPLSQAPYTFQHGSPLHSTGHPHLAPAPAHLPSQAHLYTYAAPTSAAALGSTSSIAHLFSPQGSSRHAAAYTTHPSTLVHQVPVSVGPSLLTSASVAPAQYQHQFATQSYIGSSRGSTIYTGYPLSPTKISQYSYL

ULK2 = ULK2 (Homo sapiens, UniProt Q8IYT8); conditions: 1 µM, ATP at Km
DRAK1 = DRAK1 (Homo sapiens, UniProt Q9UEE5); conditions: 1 µM, ATP at Km
Chain of DRAK1 (Q9UEE5 whole entry): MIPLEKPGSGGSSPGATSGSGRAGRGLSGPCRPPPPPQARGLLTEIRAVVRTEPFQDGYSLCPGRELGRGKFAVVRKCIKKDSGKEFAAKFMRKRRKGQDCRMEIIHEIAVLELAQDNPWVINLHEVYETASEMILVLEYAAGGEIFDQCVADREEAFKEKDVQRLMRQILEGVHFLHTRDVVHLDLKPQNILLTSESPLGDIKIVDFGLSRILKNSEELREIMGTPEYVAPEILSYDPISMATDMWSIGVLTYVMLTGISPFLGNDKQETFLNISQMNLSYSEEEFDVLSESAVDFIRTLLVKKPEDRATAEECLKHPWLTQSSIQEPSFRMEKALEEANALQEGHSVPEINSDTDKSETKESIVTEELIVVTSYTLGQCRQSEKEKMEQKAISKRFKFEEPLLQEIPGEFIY

PKCGAMMA = PKCGAMMA (Homo sapiens, UniProt P05129); conditions: 1 µM, ATP at Km
JNK2ALPHA2 = JNK2ALPHA2 (Homo sapiens, UniProt P45984); conditions: 1 µM, ATP at Km
Chain of JNK2ALPHA2 (P45984 whole entry): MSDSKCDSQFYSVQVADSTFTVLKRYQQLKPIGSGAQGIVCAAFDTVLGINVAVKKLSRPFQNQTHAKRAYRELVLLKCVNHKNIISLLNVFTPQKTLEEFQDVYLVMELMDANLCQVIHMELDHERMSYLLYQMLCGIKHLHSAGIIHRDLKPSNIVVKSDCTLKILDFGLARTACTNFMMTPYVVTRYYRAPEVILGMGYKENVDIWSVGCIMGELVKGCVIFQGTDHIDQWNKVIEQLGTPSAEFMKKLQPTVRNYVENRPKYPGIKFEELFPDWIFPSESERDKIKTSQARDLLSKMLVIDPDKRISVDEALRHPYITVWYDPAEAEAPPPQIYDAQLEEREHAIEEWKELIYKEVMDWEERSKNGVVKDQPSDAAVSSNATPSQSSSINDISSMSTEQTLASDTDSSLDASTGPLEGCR

PKD2 = PKD2 (Homo sapiens, UniProt Q9BZL6); conditions: 1 µM, ATP at Km
MINK = MINK (Homo sapiens, UniProt Q8N4C8); conditions: 1 µM, ATP at Km
PKG1ALPHA = PKG1ALPHA (Homo sapiens, UniProt Q13976); conditions: 1 µM, ATP at Km
TRKB = TRKB (Homo sapiens, UniProt Q16620); conditions: 1 µM, ATP at Km
EPHB4 = EPHB4 (Homo sapiens, UniProt P54760); conditions: 1 µM, ATP at Km
IRAK1 = IRAK1 (Homo sapiens, UniProt P51617); conditions: 1 µM, ATP at Km
TAK1 = TAK1 (Homo sapiens, UniProt O43318); conditions: 1 µM, ATP at Km
DMPK = DMPK (Homo sapiens, UniProt Q09013); conditions: 1 µM, ATP at Km
MLCK = conditions: 1 µM, ATP at Km
PAR-1BALPHA = PAR-1BALPHA (Homo sapiens, UniProt Q7KZI7); conditions: 1 µM, ATP at Km
STK33 = STK33 (Homo sapiens, UniProt Q9BYT3); conditions: 1 µM, ATP at Km
Chain of STK33 (Q9BYT3 whole entry): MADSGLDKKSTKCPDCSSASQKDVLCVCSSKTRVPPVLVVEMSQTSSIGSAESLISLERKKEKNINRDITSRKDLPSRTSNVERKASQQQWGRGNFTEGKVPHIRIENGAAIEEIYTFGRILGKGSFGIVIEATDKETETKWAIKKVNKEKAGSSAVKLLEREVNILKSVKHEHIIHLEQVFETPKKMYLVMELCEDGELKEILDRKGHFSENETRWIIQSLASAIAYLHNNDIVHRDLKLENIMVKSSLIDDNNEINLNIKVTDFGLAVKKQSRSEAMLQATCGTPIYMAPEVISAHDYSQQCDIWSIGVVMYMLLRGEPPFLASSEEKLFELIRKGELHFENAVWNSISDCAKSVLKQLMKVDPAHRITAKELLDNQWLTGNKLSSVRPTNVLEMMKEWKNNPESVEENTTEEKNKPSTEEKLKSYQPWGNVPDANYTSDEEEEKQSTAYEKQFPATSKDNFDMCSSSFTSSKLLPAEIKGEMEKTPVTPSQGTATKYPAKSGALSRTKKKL

BMX = BMX (Homo sapiens, UniProt P51813); conditions: 1 µM, ATP at Km
Chain of BMX (P51813 whole entry): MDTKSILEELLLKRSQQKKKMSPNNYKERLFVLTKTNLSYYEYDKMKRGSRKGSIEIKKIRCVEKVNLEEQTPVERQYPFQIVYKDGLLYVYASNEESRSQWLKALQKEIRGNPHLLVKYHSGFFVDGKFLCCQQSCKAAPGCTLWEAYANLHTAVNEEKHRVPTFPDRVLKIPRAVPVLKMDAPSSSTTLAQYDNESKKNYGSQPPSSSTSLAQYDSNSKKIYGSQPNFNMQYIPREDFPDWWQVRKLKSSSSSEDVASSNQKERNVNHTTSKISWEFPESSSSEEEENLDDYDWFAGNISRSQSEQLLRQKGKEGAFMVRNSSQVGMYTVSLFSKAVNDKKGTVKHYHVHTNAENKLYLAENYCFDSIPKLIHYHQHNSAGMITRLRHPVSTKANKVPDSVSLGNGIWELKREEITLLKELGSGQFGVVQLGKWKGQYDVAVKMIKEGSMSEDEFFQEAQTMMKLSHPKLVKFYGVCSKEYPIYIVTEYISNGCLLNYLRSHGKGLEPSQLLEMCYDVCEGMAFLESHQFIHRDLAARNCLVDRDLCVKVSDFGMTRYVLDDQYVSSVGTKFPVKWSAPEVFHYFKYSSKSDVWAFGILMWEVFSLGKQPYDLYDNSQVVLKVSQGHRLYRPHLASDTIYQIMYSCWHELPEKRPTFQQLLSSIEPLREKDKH

WNK3 = WNK3 (Homo sapiens, UniProt Q9BYP7); conditions: 1 µM, ATP at Km
TIE2 = TIE2 (Homo sapiens, UniProt Q02763); conditions: 1 µM, ATP at Km
SGK2 = SGK2 (Homo sapiens, UniProt Q9HBY8); conditions: 1 µM, ATP at Km
MNK2 = MNK2 (Homo sapiens, UniProt Q9HBH9); conditions: 1 µM, ATP at Km
PKCDELTA = PKCDELTA (Homo sapiens, UniProt Q05655); conditions: 1 µM, ATP at Km
LCK = LCK (Homo sapiens, UniProt P06239); conditions: LCK (first listing, page 9); 1 µM; ATP at Km
PHKGAMMA2 = PHKGAMMA2 (Homo sapiens, UniProt P15735); conditions: 1 µM, ATP at Km
FMS = FMS (Homo sapiens, UniProt P07333); conditions: 1 µM, ATP at Km
RSK4 = RSK4 (Homo sapiens, UniProt Q9UK32); conditions: 1 µM, ATP at Km
ARG = ARG (Homo sapiens, UniProt P42684); conditions: 1 µM, ATP at Km
PKCALPHA = PKCALPHA (Homo sapiens, UniProt P17252); conditions: 1 µM, ATP at Km
ALK4 = ALK4 (Homo sapiens, UniProt P36896); conditions: 1 µM, ATP at Km
Chain of ALK4 (P36896 24-505): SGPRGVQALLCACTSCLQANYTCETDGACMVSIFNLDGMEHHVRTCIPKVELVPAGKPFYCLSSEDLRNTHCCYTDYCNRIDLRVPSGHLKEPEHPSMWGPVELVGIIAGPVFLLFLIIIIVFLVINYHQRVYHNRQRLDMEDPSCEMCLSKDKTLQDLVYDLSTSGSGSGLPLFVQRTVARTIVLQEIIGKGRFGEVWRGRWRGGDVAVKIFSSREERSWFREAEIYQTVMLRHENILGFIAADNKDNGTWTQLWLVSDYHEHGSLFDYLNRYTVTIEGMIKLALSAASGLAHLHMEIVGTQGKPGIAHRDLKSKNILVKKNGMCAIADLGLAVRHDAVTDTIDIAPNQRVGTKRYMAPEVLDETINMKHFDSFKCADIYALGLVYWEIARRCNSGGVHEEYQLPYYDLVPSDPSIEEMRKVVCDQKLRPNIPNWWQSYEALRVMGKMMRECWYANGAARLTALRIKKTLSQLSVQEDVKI

PRKX = PRKX (Homo sapiens, UniProt P51817); conditions: 1 µM, ATP at Km
MELK = MELK (Homo sapiens, UniProt Q14680); conditions: 1 µM, ATP at Km
RSE = RSE (Homo sapiens, UniProt Q06418); conditions: 1 µM, ATP at Km

Chain of TBK1 (Q9UHD2 whole entry): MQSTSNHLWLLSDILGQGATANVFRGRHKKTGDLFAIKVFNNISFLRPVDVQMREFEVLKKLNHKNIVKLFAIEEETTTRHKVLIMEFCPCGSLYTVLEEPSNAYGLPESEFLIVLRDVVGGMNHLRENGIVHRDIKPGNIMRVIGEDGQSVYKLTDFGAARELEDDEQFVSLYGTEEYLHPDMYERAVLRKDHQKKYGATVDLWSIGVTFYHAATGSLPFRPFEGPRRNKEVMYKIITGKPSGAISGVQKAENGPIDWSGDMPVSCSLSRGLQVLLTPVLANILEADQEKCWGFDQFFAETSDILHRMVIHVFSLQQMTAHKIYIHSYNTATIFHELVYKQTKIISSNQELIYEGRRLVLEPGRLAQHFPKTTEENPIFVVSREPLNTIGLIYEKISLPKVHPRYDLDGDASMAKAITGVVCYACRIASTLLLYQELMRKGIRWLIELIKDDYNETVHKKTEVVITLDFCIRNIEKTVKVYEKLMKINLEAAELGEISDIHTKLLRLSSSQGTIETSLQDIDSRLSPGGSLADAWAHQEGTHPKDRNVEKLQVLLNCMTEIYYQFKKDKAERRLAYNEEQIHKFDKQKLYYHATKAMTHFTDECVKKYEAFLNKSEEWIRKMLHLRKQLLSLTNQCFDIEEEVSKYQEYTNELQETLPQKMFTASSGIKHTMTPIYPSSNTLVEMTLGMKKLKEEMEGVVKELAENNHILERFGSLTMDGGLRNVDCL

COC1CN(C(=O)c2ccc3c(N)ncc(-c4ccc(-c5cnn(C)c5)cc4)c3n2)C1 [Compound 51] showed a percentage effect (SGK) of 14%, a percentage effect (TBK1) of -23% and a percentage effect (CDK1/CYCLINB) of 1%. For the same molecule, the percentage effect (MEK1) was -18%, the percentage effect (MTOR/FKBP12) was -4% and the percentage effect (MST1) was 9%. It also gave a percentage effect (DAPK2) of 5%, a percentage effect (FGFR3) of 7% and a percentage effect (MARK1) of -5%. For the same molecule, the percentage effect (BLK) was 0%, the percentage effect (JNK1ALPHA1) was -4% and the percentage effect (FLT1) was -9%. For the same molecule, the percentage effect (PKBGAMMA) was -4%, the percentage effect (HIPK1) was 5% and the percentage effect (ULK2) was 4%. It also gave a percentage effect (DRAK1) of 1%, a percentage effect (PKCGAMMA) of -1% and a percentage effect (JNK2ALPHA2) of -6%. The percentage effect (PKD2) was -1%, the percentage effect (MINK) was -11% and the percentage effect (PKG1ALPHA) was 0%. For the same molecule, the percentage effect (TRKB) was -23%, the percentage effect (EPHB4) was 8% and the percentage effect (IRAK1) was 8%. It also gave a percentage effect (TAK1) of -9%, a percentage effect (DMPK) of 7% and a percentage effect (MLCK) of 0%. For the same molecule, the percentage effect (PAR-1BALPHA) was -9%, the percentage effect (STK33) was -15% and the percentage effect (BMX) was -3%. The percentage effect (WNK3) was -9%, the percentage effect (TIE2) was -6% and the percentage effect (SGK2) was -46%. It also gave a percentage effect (MNK2) of -7%, a percentage effect (PKCDELTA) of 4% and a percentage effect (LCK) of 2%. It also gave a percentage effect (PHKGAMMA2) of 10%, a percentage effect (FMS) of -37% and a percentage effect (RSK4) of 9%. The percentage effect (ARG) was 11%, the percentage effect (PKCALPHA) was -10% and the percentage effect (ALK4) was 9%. For the same molecule, the percentage effect (PRKX) was 43%, the percentage effect (MELK) was -10% and the percentage effect (RSE) was 17%.
With COC1CN(C(=O)c2ccc3c(N)ncc(-c4ccc(-c5cnn(C)c5)cc4)c3c2)C1 [Compound 59] the percentage effect (SGK) was 14%, the percentage effect (TBK1) was 17% and the percentage effect (CDK1/CYCLINB) was -5%. It also gave a percentage effect (MEK1) of -9%, a percentage effect (MTOR/FKBP12) of 4% and a percentage effect (MST1) of -10%. It also gave a percentage effect (DAPK2) of 12%, a percentage effect (FGFR3) of -4% and a percentage effect (MARK1) of -14%. The percentage effect (BLK) was -26%, the percentage effect (JNK1ALPHA1) was -11% and the percentage effect (FLT1) was -15%. The percentage effect (PKBGAMMA) was -6%, the percentage effect (HIPK1) was 0% and the percentage effect (ULK2) was 8%. The percentage effect (DRAK1) was -18%, the percentage effect (PKCGAMMA) was 9% and the percentage effect (JNK2ALPHA2) was 2%. For the same molecule, the percentage effect (PKD2) was -5%, the percentage effect (MINK) was -13% and the percentage effect (PKG1ALPHA) was 17%. The percentage effect (TRKB) was 0%, the percentage effect (EPHB4) was 6% and the percentage effect (IRAK1) was 14%. The percentage effect (TAK1) was -13%, the percentage effect (DMPK) was -11% and the percentage effect (MLCK) was -20%. For the same molecule, the percentage effect (PAR-1BALPHA) was -4%, the percentage effect (STK33) was 1% and the percentage effect (BMX) was 1%. It also gave a percentage effect (WNK3) of 4%, a percentage effect (TIE2) of -18% and a percentage effect (SGK2) of 38%. For the same molecule, the percentage effect (MNK2) was -4%, the percentage effect (PKCDELTA) was 0% and the percentage effect (LCK) was -18%. For the same molecule, the percentage effect (PHKGAMMA2) was 2%, the percentage effect (FMS) was -14% and the percentage effect (RSK4) was 13%. It also gave a percentage effect (ARG) of -7%, a percentage effect (PKCALPHA) of -2% and a percentage effect (ALK4) of 8%. The percentage effect (PRKX) was 6%, the percentage effect (MELK) was -8% and the percentage effect (RSE) was -6%.
